Assay results as given in ChEMBL document CHEMBL5441445, “ASAP - In vitro CYP inhibition pooled” (2024).

Legend:
Assay type in all cases: ADME
Cytochrome P450 3A4 = Cytochrome P450 3A4 (Homo sapiens, UniProt P08684); assay: (§1) The compounds are incubated at 0, 0.15, 0.5, 1.5, 5, 15 and 50 uM concentration at 37 C, CYP3A4 is pooled in a ratio such that biotransformation of each probe substrate is specific for the CYP450. Substrates (at their Km) are also pooled within the same solution to create an enzyme-substrate stock and test compound is added. The final solvent concentration is 1% DMSO. After equilibration to 37 C, addition of NADPH initiates substrate biotransformation. The incubation is stopped at 10 min by methanol containing internal standard. The quenched samples are centrifuged to precipitate the protein and the supernatants are analyzed by LC-MS/MS to measure metabolite formation. IC50 of test compounds against CYP3A4 is calculated. The assay has been performed by Concept Life Sciences Ltd.
Cytochrome P450 1A2 = target: T1, Cytochrome P450 1A2 (Homo sapiens, UniProt P05177); assay: as §1, with “CYP1A2” for “CYP3A4”
T1 sequence (P05177 whole entry): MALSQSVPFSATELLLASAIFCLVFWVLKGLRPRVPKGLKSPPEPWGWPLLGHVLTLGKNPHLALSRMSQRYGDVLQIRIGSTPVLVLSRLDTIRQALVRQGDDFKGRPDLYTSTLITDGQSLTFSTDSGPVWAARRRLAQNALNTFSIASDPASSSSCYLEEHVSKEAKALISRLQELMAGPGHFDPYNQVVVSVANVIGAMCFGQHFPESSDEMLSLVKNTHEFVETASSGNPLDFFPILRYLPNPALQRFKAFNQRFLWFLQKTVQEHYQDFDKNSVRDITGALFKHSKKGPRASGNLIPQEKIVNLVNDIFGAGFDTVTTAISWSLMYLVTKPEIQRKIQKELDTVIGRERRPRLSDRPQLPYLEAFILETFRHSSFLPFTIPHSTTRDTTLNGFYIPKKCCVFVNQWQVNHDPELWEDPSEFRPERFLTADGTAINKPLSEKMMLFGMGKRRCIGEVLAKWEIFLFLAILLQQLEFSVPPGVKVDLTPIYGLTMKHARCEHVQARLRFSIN

Cytochrome P450 2C9 = Cytochrome P450 2C9 (Homo sapiens, UniProt P11712); assay: as §1, with “CYP2C9” for “CYP3A4”
Cytochrome P450 2D6 = Cytochrome P450 2D6 (Homo sapiens, UniProt P10635); assay: as §1, with “CYP2D6” for “CYP3A4”
Cytochrome P450 2C19 = Cytochrome P450 2C19 (Homo sapiens, UniProt P33261); assay: as §1, with “CYP2C19” for “CYP3A4”
Sequence of Cytochrome P450 2C19 (P33261 whole entry): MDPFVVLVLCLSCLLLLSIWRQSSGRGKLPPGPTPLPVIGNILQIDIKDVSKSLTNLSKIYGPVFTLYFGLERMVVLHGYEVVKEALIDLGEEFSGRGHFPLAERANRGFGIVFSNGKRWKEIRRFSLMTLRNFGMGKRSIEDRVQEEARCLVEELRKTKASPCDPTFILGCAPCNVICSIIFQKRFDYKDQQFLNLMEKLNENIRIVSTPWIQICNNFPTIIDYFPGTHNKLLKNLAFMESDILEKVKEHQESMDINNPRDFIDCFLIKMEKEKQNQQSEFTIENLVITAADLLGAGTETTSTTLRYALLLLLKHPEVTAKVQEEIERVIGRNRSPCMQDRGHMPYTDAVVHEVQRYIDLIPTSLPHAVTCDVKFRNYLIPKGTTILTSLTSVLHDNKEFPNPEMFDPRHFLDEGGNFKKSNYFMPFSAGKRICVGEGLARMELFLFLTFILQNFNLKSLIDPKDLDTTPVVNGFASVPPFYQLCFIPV

Sequence of Cytochrome P450 3A4 (P08684 whole entry): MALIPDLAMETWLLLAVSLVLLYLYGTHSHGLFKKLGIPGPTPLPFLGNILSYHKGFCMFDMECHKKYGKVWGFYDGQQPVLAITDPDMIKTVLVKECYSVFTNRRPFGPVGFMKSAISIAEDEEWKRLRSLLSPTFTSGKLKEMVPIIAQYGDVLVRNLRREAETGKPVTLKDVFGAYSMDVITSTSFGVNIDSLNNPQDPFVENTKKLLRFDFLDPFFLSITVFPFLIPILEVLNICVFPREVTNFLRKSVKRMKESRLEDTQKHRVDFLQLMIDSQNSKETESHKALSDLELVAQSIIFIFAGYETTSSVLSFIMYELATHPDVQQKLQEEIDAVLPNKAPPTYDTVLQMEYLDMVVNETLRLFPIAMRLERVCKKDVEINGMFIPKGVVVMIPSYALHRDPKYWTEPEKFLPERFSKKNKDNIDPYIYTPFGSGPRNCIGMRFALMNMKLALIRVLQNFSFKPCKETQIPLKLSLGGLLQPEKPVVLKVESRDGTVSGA
Sequence of Cytochrome P450 2C9 (P11712 whole entry): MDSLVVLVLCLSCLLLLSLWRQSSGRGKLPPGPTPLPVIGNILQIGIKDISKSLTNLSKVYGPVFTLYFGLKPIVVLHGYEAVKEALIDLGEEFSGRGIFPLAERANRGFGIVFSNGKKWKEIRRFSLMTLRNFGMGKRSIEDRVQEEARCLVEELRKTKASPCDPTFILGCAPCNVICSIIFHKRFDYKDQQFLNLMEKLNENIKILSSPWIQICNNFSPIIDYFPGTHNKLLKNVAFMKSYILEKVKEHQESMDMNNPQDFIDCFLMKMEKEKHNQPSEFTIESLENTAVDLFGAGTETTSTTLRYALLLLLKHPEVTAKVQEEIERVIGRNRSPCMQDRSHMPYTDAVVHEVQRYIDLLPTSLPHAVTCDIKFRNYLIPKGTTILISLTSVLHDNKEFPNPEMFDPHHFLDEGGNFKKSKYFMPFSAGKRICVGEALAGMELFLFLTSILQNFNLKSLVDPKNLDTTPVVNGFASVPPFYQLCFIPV
Sequence of Cytochrome P450 2D6 (P10635 whole entry): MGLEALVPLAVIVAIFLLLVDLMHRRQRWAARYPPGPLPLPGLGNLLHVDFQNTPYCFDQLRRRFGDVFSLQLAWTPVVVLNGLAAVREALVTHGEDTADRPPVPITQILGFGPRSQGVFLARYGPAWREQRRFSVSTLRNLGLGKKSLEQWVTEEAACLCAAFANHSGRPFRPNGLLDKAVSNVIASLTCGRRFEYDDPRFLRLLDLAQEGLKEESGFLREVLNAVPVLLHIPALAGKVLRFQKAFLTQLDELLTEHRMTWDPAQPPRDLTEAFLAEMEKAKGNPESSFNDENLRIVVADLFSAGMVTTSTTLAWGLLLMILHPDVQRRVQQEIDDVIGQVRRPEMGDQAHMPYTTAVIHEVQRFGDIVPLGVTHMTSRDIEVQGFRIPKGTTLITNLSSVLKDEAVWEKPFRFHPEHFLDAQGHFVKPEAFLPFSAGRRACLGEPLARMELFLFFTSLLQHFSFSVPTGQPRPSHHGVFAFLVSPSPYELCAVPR

| SMILES | IC50 (Cytochrome P450 3A4) [µM] | IC50 (Cytochrome P450 1A2) [µM] | IC50 (Cytochrome P450 2C9) [µM] | IC50 (Cytochrome P450 2D6) [µM] | IC50 (Cytochrome P450 2C19) [µM] |
| --- | --- | --- | --- | --- | --- |
| CC(C)[C@@H](Nc1ncnc2[nH]c(C(=O)N[C@@H]3CCN(C)C3)cc12)c1ccc2c(c1)S(=O)(=O)CCC2 | > 50 | > 50 | > 50 | > 50 | > 50 |
| Cn1ncc(-c2cc3c(N[C@@H](c4ccc5c(n4)OCCO5)C(C)(C)C)ncnc3[nH]2)c1C#N | 8.79 | > 50 | 42.6 | 20.5 | > 50 |
| COc1ccc([C@H](Cc2nnn[nH]2)NC(=O)c2ncnc3[nH]ccc23)cc1 | 25.4 | > 50 | 31.2 | > 50 | > 50 |
| CC(C)[C@H](Nc1ncnc2[nH]ccc12)c1ccc2c(c1)S(=O)(=O)CCC2 | 3.2 | > 50 | 18.2 | > 50 | 15 |
| C[C@H](C(=O)O)[C@@H](NC(=O)c1ncnc2[nH]ccc12)c1ccc(Br)cc1 | > 50 | > 50 | 5.14 | > 50 | > 50 |
| CNC(=O)Cn1cc(-c2cc3c(N[C@@H](c4ccc5c(c4)S(=O)(=O)CCC5)C(C)C)ncnc3[nH]2)cn1 | 3.1 | 44.1 | 29 | 48.2 | 34.7 |
| CC(C)[C@@H](Nc1ncnc2[nH]c(-c3cnn(C)c3C#N)cc12)c1ccc2c(n1)OCCO2 | 2.07 | 8.86 | 4.34 | 22.7 | 9.51 |
| CNCc1cc(-c2cc3c(N[C@@H](c4ccc5c(c4)S(=O)(=O)CCC5)C(C)C)ncnc3[nH]2)co1 | 1.81 | 49.3 | 5.25 | 9.03 | 22.6 |
| CC(C)[C@H](Nc1ncnc2[nH]c(-c3cnn(C)c3C#N)cc12)c1ccc2c(n1)OCCO2 | 3.69 | 35.2 | 5.93 | 27.7 | 16.9 |
